What is called inhibition is the change of the read-out against control, counted positive when it falls.

Type in all cases: biochemical
The target in test [1] is T1, interleukin-1β converting enzyme (Homo sapiens, UniProt P29466).
T1 sequence (P29466 120-297 limits assumed): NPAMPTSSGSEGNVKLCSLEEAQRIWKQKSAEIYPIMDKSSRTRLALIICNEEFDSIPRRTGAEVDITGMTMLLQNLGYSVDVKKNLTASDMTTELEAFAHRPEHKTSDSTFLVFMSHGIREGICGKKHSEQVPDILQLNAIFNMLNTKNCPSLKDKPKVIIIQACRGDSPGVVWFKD
T1 sequence (P29466 317-404 limits assumed): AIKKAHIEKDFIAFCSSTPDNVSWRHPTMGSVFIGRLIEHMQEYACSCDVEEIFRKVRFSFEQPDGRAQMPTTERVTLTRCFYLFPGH
Briefly: Direct spectrophotometric assay of ICE activity of DEAE-purified THP-1 cell lysate (Example 2). Further details: THP-1 cell lysate purified approximately 100-fold using DEAE-anion exchange chromatography; endogenous in cells; host or cells: THP-1 cells (lysate, about 100-fold DEAE-purified). Particulars: 25 °C, pH 7.5. The procedure:
Direct Assay: Interleukin 1β activity of Activity of DEAE-purified THP-1 cell lysate. Enzyme: THP-1 cell lysate purified approximately 100-fold using DEAE-anion exchange chromatography stock concentration = 5 units/ul (a unit is defined as the amount of enzyme required to produce 1 pmole of p-NA/min at 25 degrees using saturating levels of substrate. p-NA is para-nitroanaline.
Substrate: Ac-Tyr-Val-Ala-Asp-p-NA 5 mM stock solution in DMSO
(§1) Buffer: 100 mM Hepes 10% sucrose 0.1% Chaps 1 mM DTT 1 mg/ml BSA pH 7.5
At 25 ° C, […] of Buffer as defined above.
Reaction is monitored continuously in a Cary 219 spectrophotometer at a wavelength of 410 nm. Results: The rate of the reaction under these conditions is 0.005 absorbance units/min, corresponding to 0.5 uM pNA produced/min.

The target in test [2] is T1, interleukin-1β converting enzyme. Briefly: Direct fluorometric assay of ICE activity of DEAE-purified THP-1 cell lysate in the presence of an enzyme inhibitor (Example 1B). Particulars: 25 °C. On the set-up: THP-1 cell lysate purified approximately 100-fold using DEAE-anion exchange chromatography; endogenous in cells; host or cells: THP-1 cells (lysate, about 100-fold DEAE-purified). The procedure: Direct Assay: Interleukin 1β activity of Activity of DEAE-purified THP-1 cell lysate in the presence of an enzyme inhibitor.
(§2) Enzyme: THP-1 cell lysate purified approximately 100-fold using DEAE-anion exchange chromatography stock concentration = 5 units/ul (a unit is defined as the amount of enzyme required to produce 1 pmole of AMC/min at 25 degrees using saturating levels of substrate (> = 50 µM).
Substrate: Ac-Tyr-Val-Ala-Asp-AMC 5 mM stock solution in DMSO
as §1
Sample: compound Z (i.e. N-(N-acetyl-tyrosinylvalinyl-alaninyl)-3-amino-4-oxo butanoic acid) 2µM in H20
At 25 ° C, 5µl of substrate 5µl of enzyme and 5µl of sample were added to 485 µl of Buffer as defined above.
Liberation of AMC was monitored using a Gilford Fluoro IV Spectrofluorometer using an excitation wavelength of 380 nm and an emmission wavelength of 460nm. 1µM AMC = 100% relative fluoroscence.

Test [3] has the same target. Briefly: Coupled fluorometric assay of ICE activity of DEAE-purified THP-1 cell lysate with leucine aminopeptidase (LAPM) (Example 3). On the set-up: THP-1 cell lysate purified approximately 100-fold using DEAE-anion exchange chromatography; endogenous in cells; host or cells: THP-1 cells (lysate, about 100-fold DEAE-purified); The coupling enzyme LAPM was purchased from Sigma, No. L-0632, and comes from porcine kidney microsomes. The conditions noted are these: 25 C. Here is the method:
Coupled Assay: Interleukin 1β activity of Activity of DEAE-purified THP-1 cell lysate.
Enzyme: THP-1 cell lysate purified approximately 100-fold using DEAE-anion exchange chromatography stock concentration = 5 units/ul (a unit is defined as the amount of enzyme required to produce 1 pmole of AMC/min at 25 degrees using saturating levels of substrate ( = 50 uM).
Coupling Enzyme: Leucine Aminopetidase Microsomal (Type IV) (LAPM) (purified from porcine kidney microsomes) EC 3.4.11.2 Sigma No. L-0632 12.5 units/ml stock solution in DMSO
Substrate: Ac-Tyr-Val-Ala-Asp-Gly-AMC 5 mM stock solution in DMSO
as §1
At 25 C, 5µl of substrate 50 µl of LAPM, 5µl of ICE were added to 440 µl of buffer. Reaction is monitored continuously in a Gilford Fluoro-IV Spectrofluorometer. excitation wavelength = 380 nm emission wavelength = 460 nm 1 uM AMC = 100% relative fluoroescence

Test [4] shares this target. Briefly: Direct fluorometric assay of ICE activity of DEAE-purified THP-1 cell lysate (Example 1A). On the set-up: THP-1 cell lysate purified approximately 100-fold using DEAE-anion exchange chromatography; endogenous in cells; host or cells: THP-1 cells (lysate, about 100-fold DEAE-purified). The conditions noted are these: substrate cleavage, 25 °C, pH 7.5, 5 µl of 5 mM substrate and 5 µl enzyme (5 units/ul) in 490 µl buffer. The procedure:
Direct Assay: Interleukin 1β activity of Activity of DEAE-purified THP-1 cell lysate.
as §2
Substrate: N-(N-Acetyl-Tyrosinyl)-Valinyl-alaninylaspartic acid 7-amino-4-methylcoumarin amide (i.e. Ac-Tyr-Val-Ala-Asp-AMC) 5 mM stock solution in DMSO
Buffer: 100 mM Hepes 10% sucrose 0.1% Chaps 1 mM DTT 1 mg/ml BSA pH 7.5 At 25 ° C, 5µl of substrate and 5µl of enzyme was added to 490 µl of Buffer as defined above.
Liberation of 7-Amino-4-methylcoumarin (AMC) was monitored using a Gilford Fluoro IV Spectrofluorometer using an excitation wavelength of 380 nm and an emmission wavelength of 460nm. 1µM AMC = 100% relative fluoroscence.

The mark [5] stands for this setting: 5 µl of sample 2µM in 500 µl, substrate Ac-Tyr-Val-Ala-Asp-AMC.

The star is where a group is joined. AMC = Cc1cc(=O)oc2cc(N*)ccc12

On to `CC(=O)N[C@@H](Cc1ccc(O)cc1)C(=O)N[C@H](C(=O)N[C@@H](C)C(=O)N[C@@H](CC(=O)O)C(=O)Nc1ccc([N+](=O)[O-])cc1)C(C)C` [Ac-Tyr-Val-Ala-Asp-p-NA], for which the “rate of the reaction (pNA produced)” value in test [1] (corresponding to the absorbance rate at 410 nm) turned out to be 0.5 uM pNA produced/min. Moreover, the “rate of the reaction” value in test [1] (substrate cleavage monitored at 410 nm, 5 mM substrate stock) turned out to be 0.005 absorbance units/min.
In the case of “N-(N-acetyl-tyrosinylvalinyl-alaninyl)-3-amino-4-oxo butanoic acid [Compound Z]”, in test [2] (setting [5]), the “half-life for the slow onset of inhibition” value was found to be 2.7 min and the “rate constant for inhibition” value came to 0.25 min-^1. Moreover, the inhibition in test [2] (slow onset of inhibition, value eventually approached, 5 µl of sample 2µM in 500 µl) is around 100%. Further, the kind of inhibition entry in test [2] (substrate Ac-Tyr-Val-Ala-Asp-AMC, 5 µl of sample 2µM in H2O in 500 µl, pH 7.5) is “slow, tight-binding inhibitor”.
“N-(N-Acetyl-tyrosinyl-valinyl-alaninyl-aspartylglycinyl)-7-amino-4-methylcoumarin (Ac-YVADG-{AMC}; SMILES CC(=O)N[C@@H](Cc1ccc(O)cc1)C(=O)N[C@H](C(=O)N[C@@H](C)C(=O)N[C@@H](CC(=O)O)C(=O)NCC(=O)Nc1ccc2c(C)cc(=O)oc2c1)C(C)C) [Ac-Tyr-Val-Ala-Asp-Gly-AMC]”: the “time required to reach 99% of the steady state of the ICE reaction” value in test [3] (7 x t 1/2, coupled assay with LAPM) stood at 11 min. Also, the “velocity of the steady state reaction” value in test [3] (coupled assay with LAPM, 5 µl of 5 mM substrate, 5 µl ICE in 500 µl, pH 7.5) amounted to 0.05 uM AMC/min. The “rate constant that describes the approach to steady state” value in test [3] (lag phase, determined by the amount of coupling enzyme (50 µl LAPM, 12.5 units/ml stock)) is 0.44 + 0.01 min -1.
On to `CC(=O)N[C@@H](Cc1ccc(O)cc1)C(=O)N[C@H](C(=O)N[C@@H](C)C(=O)N[C@@H](CC(=O)O)C(=O)Nc1ccc2c(C)cc(=O)oc2c1)C(C)C` [Ac-Tyr-Val-Ala-Asp-AMC, N-(N-Acetyl-tyrosinyl-valinyl-alaninyl)-aspartic acid a-7-amino-4-methylcoumarin amide], for which the rate in test [4] turned out to be 0.005 mM AMC/min. Moreover, the “100% relative fluoroscence achieved in” value in test [4] (1µM AMC = 100% relative fluorescence) is 20 min. Besides, in test [2] (uninhibited initial velocity of substrate cleavage in the presence of compound Z, pH 7.5), the initial velocity was determined as 0.05 uM AMC produced/min.

For the origin of these results see patent publication EP0533226A2, “Novel chromophore containing compounds” (MERCK & CO. INC., priority 1991, dated 1993).
